Assay results from PubChem BioAssay (NCI).
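Where inhibition never reached the appropriate level, the endpoint shown equals the highest concentration tested. Otherwise, values were interpolated linearly from a five-concentration, 48-hour dose response in 96-well plates. The concentration for full growth arrest is given as TGI.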

Columns and labels:
Experiment in all cases: DTP human tumour cell line panel, 48 h
CCRF-CEM leukemia = system: CCRF-CEM leukemia
EKVX NSCLC = system: EKVX NSCLC
SW-620 colon = system: SW-620 colon
SNB-19 CNS = system: SNB-19 CNS
MDA-N = system: MDA-N
RPMI-8226 leukemia = system: RPMI-8226 leukemia
A498 renal = system: A498 renal
SR leukemia = system: SR leukemia
M14 melanoma = system: M14 melanoma
LOX IMVI melanoma = system: LOX IMVI melanoma
PC-3 prostate = system: PC-3 prostate
HL-60(TB) leukemia = system: HL-60(TB) leukemia
K-562 leukemia = system: K-562 leukemia
MDA-MB-231 breast = system: MDA-MB-231 breast
MALME-3M melanoma = system: MALME-3M melanoma
SF-539 CNS = system: SF-539 CNS
HS 578T breast = system: HS 578T breast
MOLT-4 leukemia = system: MOLT-4 leukemia
T-47D breast = system: T-47D breast
OVCAR-3 ovarian = system: OVCAR-3 ovarian
ACHN renal = system: ACHN renal
SK-MEL-2 melanoma = system: SK-MEL-2 melanoma
SF-295 CNS = system: SF-295 CNS
UACC-257 melanoma = system: UACC-257 melanoma
BT-549 breast = system: BT-549 breast
OVCAR-4 ovarian = system: OVCAR-4 ovarian
CAKI-1 renal = system: CAKI-1 renal
DU-145 prostate = system: DU-145 prostate
NCI-H23 lung = system: NCI-H23 lung
UO-31 renal = system: UO-31 renal
SN12C renal = system: SN12C renal
HOP-62 NSCLC = system: HOP-62 NSCLC
NCI/ADR-RES ovarian = system: NCI/ADR-RES ovarian
COLO 205 colon = system: COLO 205 colon
RXF 393 renal = system: RXF 393 renal
HT29 colon = system: HT29 colon
UACC-62 melanoma = system: UACC-62 melanoma
KM12 colon = system: KM12 colon
OVCAR-5 ovarian = system: OVCAR-5 ovarian
SK-MEL-28 melanoma = system: SK-MEL-28 melanoma
HCT-116 colon = system: HCT-116 colon
U251 CNS = system: U251 CNS
IGROV1 ovarian = system: IGROV1 ovarian
786-0 renal = system: 786-0 renal
SF-268 CNS = system: SF-268 CNS
HOP-92 NSCLC = system: HOP-92 NSCLC
SK-OV-3 ovarian = system: SK-OV-3 ovarian
OVCAR-8 ovarian = system: OVCAR-8 ovarian
A549 NSCLC = system: A549 NSCLC
SNB-75 CNS = system: SNB-75 CNS
TK-10 renal = system: TK-10 renal
MCF7 breast = system: MCF7 breast
NCI-H522 lung = system: NCI-H522 lung
SK-MEL-5 melanoma = system: SK-MEL-5 melanoma
NCI-H226 lung = system: NCI-H226 lung
MDA-MB-435 = system: MDA-MB-435
HCT-15 colon = system: HCT-15 colon
HCC-2998 colon = system: HCC-2998 colon
NCI-H460 lung = system: NCI-H460 lung

**Q.** Which results are given for `O=C1C(Br)=C(C2=CC(=P(c3ccccc3)(c3ccccc3)c3ccccc3)C=C2)C(=O)C(Br)=C1C1=CC(=P(c2ccccc2)(c2ccccc2)c2ccccc2)C=C1`?
**A.** TGI (CCRF-CEM leukemia): > 100 µM; TGI (EKVX NSCLC): 34 µM; TGI (SW-620 colon): 35 µM; TGI (SNB-19 CNS): > 100 µM; TGI (MDA-N): > 100 µM; TGI (RPMI-8226 leukemia): > 100 µM; TGI (A498 renal): > 100 µM; TGI (SR leukemia): > 100 µM; TGI (M14 melanoma): 25.1 µM; TGI (LOX IMVI melanoma): > 100 µM; TGI (PC-3 prostate): > 100 µM; TGI (HL-60(TB) leukemia): > 100 µM; TGI (K-562 leukemia): > 100 µM; TGI (MDA-MB-231 breast): > 100 µM; TGI (MALME-3M melanoma): 34.1 µM; TGI (SF-539 CNS): > 100 µM; TGI (HS 578T breast): > 100 µM; TGI (MOLT-4 leukemia): > 100 µM; TGI (T-47D breast): > 100 µM; TGI (OVCAR-3 ovarian): > 100 µM; TGI (ACHN renal): > 100 µM; TGI (SK-MEL-2 melanoma): > 100 µM; TGI (SF-295 CNS): > 100 µM; TGI (UACC-257 melanoma): 95.1 µM; TGI (BT-549 breast): > 100 µM; TGI (OVCAR-4 ovarian): > 100 µM; TGI (CAKI-1 renal): > 100 µM; TGI (DU-145 prostate): > 100 µM; TGI (NCI-H23 lung): > 100 µM; TGI (UO-31 renal): > 100 µM; TGI (SN12C renal): > 100 µM; TGI (HOP-62 NSCLC): > 100 µM; TGI (NCI/ADR-RES ovarian): > 100 µM; TGI (COLO 205 colon): > 100 µM; TGI (RXF 393 renal): > 100 µM; TGI (HT29 colon): > 100 µM; TGI (UACC-62 melanoma): > 100 µM; TGI (KM12 colon): > 100 µM; TGI (OVCAR-5 ovarian): 31.7 µM; TGI (SK-MEL-28 melanoma): > 100 µM; TGI (HCT-116 colon): > 100 µM; TGI (U251 CNS): 30.6 µM; TGI (IGROV1 ovarian): > 100 µM; TGI (786-0 renal): > 100 µM; TGI (SF-268 CNS): > 100 µM; TGI (HOP-92 NSCLC): 55.5 µM; TGI (SK-OV-3 ovarian): > 100 µM; TGI (OVCAR-8 ovarian): > 100 µM; TGI (A549 NSCLC): > 100 µM; TGI (SNB-75 CNS): > 100 µM; TGI (TK-10 renal): > 100 µM; TGI (MCF7 breast): > 100 µM; TGI (NCI-H522 lung): 42.9 µM; TGI (SK-MEL-5 melanoma): > 100 µM

**Q.** Which results are given for `Nc1ncnc2c1ccn2COC(CO)CO`?
**A.** TGI (CCRF-CEM leukemia): > 100 µM; TGI (EKVX NSCLC): > 100 µM; TGI (SW-620 colon): > 100 µM; TGI (SNB-19 CNS): > 100 µM; TGI (MDA-N): > 100 µM; TGI (RPMI-8226 leukemia): > 100 µM; TGI (A498 renal): > 100 µM; TGI (M14 melanoma): > 100 µM; TGI (LOX IMVI melanoma): > 100 µM; TGI (PC-3 prostate): > 100 µM; TGI (HL-60(TB) leukemia): > 100 µM; TGI (K-562 leukemia): > 100 µM; TGI (MDA-MB-231 breast): > 100 µM; TGI (MALME-3M melanoma): > 100 µM; TGI (SF-539 CNS): > 100 µM; TGI (HS 578T breast): > 100 µM; TGI (NCI-H226 lung): > 100 µM; TGI (MOLT-4 leukemia): > 100 µM; TGI (MDA-MB-435): > 100 µM; TGI (T-47D breast): > 100 µM; TGI (OVCAR-3 ovarian): > 100 µM; TGI (ACHN renal): > 100 µM; TGI (SK-MEL-2 melanoma): > 100 µM; TGI (SF-295 CNS): > 100 µM; TGI (UACC-257 melanoma): > 100 µM; TGI (BT-549 breast): > 100 µM; TGI (OVCAR-4 ovarian): > 100 µM; TGI (CAKI-1 renal): > 100 µM; TGI (DU-145 prostate): > 100 µM; TGI (NCI-H23 lung): > 100 µM; TGI (UO-31 renal): > 100 µM; TGI (SN12C renal): > 100 µM; TGI (HOP-62 NSCLC): > 100 µM; TGI (NCI/ADR-RES ovarian): > 100 µM; TGI (RXF 393 renal): > 100 µM; TGI (HT29 colon): > 100 µM; TGI (UACC-62 melanoma): > 100 µM; TGI (KM12 colon): > 100 µM; TGI (HCT-15 colon): > 100 µM; TGI (OVCAR-5 ovarian): > 100 µM; TGI (SK-MEL-28 melanoma): > 100 µM; TGI (HCT-116 colon): > 100 µM; TGI (U251 CNS): > 100 µM; TGI (IGROV1 ovarian): > 100 µM; TGI (786-0 renal): > 100 µM; TGI (SF-268 CNS): > 100 µM; TGI (HCC-2998 colon): > 100 µM; TGI (HOP-92 NSCLC): > 100 µM; TGI (SK-OV-3 ovarian): > 100 µM; TGI (OVCAR-8 ovarian): > 100 µM; TGI (A549 NSCLC): > 100 µM; TGI (NCI-H460 lung): > 100 µM; TGI (SNB-75 CNS): > 100 µM; TGI (TK-10 renal): > 100 µM; TGI (MCF7 breast): > 100 µM; TGI (NCI-H522 lung): > 100 µM; TGI (SK-MEL-5 melanoma): > 100 µM

**Q.** Which results are given for `COc1ccc2c(c1)N=C(N)n1c(nc3ccccc31)S2`?
**A.** TGI (SW-620 colon): > 100 µM; TGI (SNB-19 CNS): > 100 µM; TGI (MDA-N): 16 µM; TGI (RPMI-8226 leukemia): > 100 µM; TGI (A498 renal): 80.6 µM; TGI (SR leukemia): > 100 µM; TGI (M14 melanoma): 15.6 µM; TGI (LOX IMVI melanoma): > 100 µM; TGI (PC-3 prostate): 69.1 µM; TGI (HL-60(TB) leukemia): > 100 µM; TGI (K-562 leukemia): > 100 µM; TGI (MDA-MB-231 breast): 32.3 µM; TGI (MALME-3M melanoma): > 100 µM; TGI (SF-539 CNS): > 100 µM; TGI (HS 578T breast): > 100 µM; TGI (NCI-H226 lung): > 100 µM; TGI (MOLT-4 leukemia): > 100 µM; TGI (T-47D breast): 76.7 µM; TGI (OVCAR-3 ovarian): 90.4 µM; TGI (ACHN renal): > 100 µM; TGI (SK-MEL-2 melanoma): 28.1 µM; TGI (SF-295 CNS): > 100 µM; TGI (UACC-257 melanoma): 38.1 µM; TGI (BT-549 breast): > 100 µM; TGI (OVCAR-4 ovarian): 38.9 µM; TGI (DU-145 prostate): > 100 µM; TGI (NCI-H23 lung): 26.2 µM; TGI (UO-31 renal): 38.4 µM; TGI (SN12C renal): > 100 µM; TGI (HOP-62 NSCLC): > 100 µM; TGI (NCI/ADR-RES ovarian): 86.7 µM; TGI (COLO 205 colon): 26.1 µM; TGI (RXF 393 renal): 70.5 µM; TGI (HT29 colon): 15.9 µM; TGI (UACC-62 melanoma): 76.7 µM; TGI (KM12 colon): 36.2 µM; TGI (HCT-15 colon): > 100 µM; TGI (OVCAR-5 ovarian): 23.9 µM; TGI (SK-MEL-28 melanoma): > 100 µM; TGI (HCT-116 colon): 15.8 µM; TGI (U251 CNS): 29.4 µM; TGI (IGROV1 ovarian): > 100 µM; TGI (786-0 renal): 4.39 µM; TGI (SF-268 CNS): > 100 µM; TGI (HCC-2998 colon): > 100 µM; TGI (HOP-92 NSCLC): 53.2 µM; TGI (SK-OV-3 ovarian): 95.4 µM; TGI (A549 NSCLC): > 100 µM; TGI (NCI-H460 lung): > 100 µM; TGI (SNB-75 CNS): > 100 µM; TGI (TK-10 renal): > 100 µM; TGI (MCF7 breast): > 100 µM; TGI (NCI-H522 lung): 25.9 µM; TGI (SK-MEL-5 melanoma): 20.8 µM
